Publication PMC10216731 (2023)

How the values were obtained:
[1] = tested on: aptamer for AMP (Apt) (DNA, aptamer) GCGGGCGGTTGTATAGCGG; test: fluorescence recovery by release of TPE-Am; conditions: 99% PBS (PBS:DMSO), pH 7.4, 25 °C, aptamer 500 nM
[2] = tested on: aptamer for AMP (Apt) (DNA, aptamer) GCGGGCGGTTGTATAGCGG; test: fluorescence quenching of TPE-Am, lg[(F0-F)/F] against lg[Q] plot; conditions: Na+, K+ from 10 mM PBS (Na2HPO4, KH2PO4, NaCl, KCl); individual cation concentrations not given; 305 K; PBS:DMSO 99% PBS; TPE-Am aggregated; also measured at 287 and 318 K; apparent
[3] = TPE-Am displacement, highest tested 100 nM

| Compound | binding [1, 3] | also measured |
| --- | --- | --- |
| CC[C@H]1OC(=O)[C@H](C)[C@@H](O[C@H]2C[C@@](C)(OC)[C@@H](O)[C@H](C)O2)[C@H](C)[C@@H](O[C@@H]2O[C@H](C)C[C@H](N(C)C)[C@H]2O)[C@](C)(O)C[C@@H](C)/C(=N\OCOCCOC)[C@H](C)[C@@H](O)[C@]1(C)O | no | – |
| Nc1ccc(C(=C(c2ccccc2)c2ccccc2)c2ccccc2)cc1 | – | Kb [2]: 626000 L/mol |
| CN(C)[C@@H]1C(=O)C(C(N)=O)=C(O)[C@@]2(O)C(=O)C3=C(O)c4c(O)cccc4[C@@](C)(O)[C@H]3C[C@@H]12 | no | – |
| CC1(C)S[C@@H]2[C@H](NC(=O)[C@H](N)c3ccccc3)C(=O)N2[C@H]1C(=O)O | – | binding ([1]; TPE-Am 1 μM displaced, 10 nM AMP): yes |

The next lines start with results.

| binding [1, 3] | Compound | also measured |
| --- | --- | --- |
| no | O=[N+]([O-])N=C1NCCN1Cc1ccc(Cl)nc1 | – |
| no | O=C(N[C@H](CO)[C@H](O)c1ccc([N+](=O)[O-])cc1)C(Cl)Cl | – |
